# Tests used:
# A. brasiliensis = assay: Poison agar assay; type: cell-based, Aspergillus brasiliensis
# Method: Microorganisms Escherichia coli (ATCC #8739), Streptococcus sanguinis (ATCC #BAA-1455), Salmonella enteria subsp. enterica (ex Kauffmann and Edwards) Le Minor and Popoff serovar Typhimurium (ATCC #14028), Staphylococcus aureus (ATCC #6538), Pseudomonas aeruginosa (ATCC #9027), and Candida albicans (ATCC #10231) were obtained from a −80° C. internal stock culture. Aspergillus brasiliensis (ATCC #16404) was obtained from an internal stock solution culture stored at 4° C. E. coli, S. enterica S. aureus, and P. aeruginosa were grown in tryptic soy broth (TSB) and incubated at 37° C. for 24 h. S. sanguinis was grown in brain heart infusion broth (BHI). A. brasiliensis was plated on Sabourand dextrose agar (SDA) and incubated at 25° C. for 5-7 days. C. albicans was grown in Sabourand dextrose broth (SDB) and incubated at 25° C. for 48 h.
# A. brasiliensis was harvested by adding 18 mL sterile saline to the plate and agitating the mold from the agar with a sterile inoculating loop. The inoculum was collected upon agitation. All suspended microbes were diluted with the same type of broth media used to grow each organism until an inoculum in the range of 10^6 CFU/mL was achieved. The inoculum concentration was determined by plate count method. Each strain was identified by plating on the appropriate growth media, E. coli, S. aureus, and P. aeruginosa on tryptic soy agar (Bacto, BD Sciences, Manassas, Va.) and C. albicans and A. brasiliensis on Sabrouand dextrose agar, to ensure there was no contamination of the inoculum.
# A poison agar assay was completed for A. brasiliensis. Potato dextrose agar was used as the plated medium. Inocula at 10^5 cfu/ml were prepared and counted using a Petroff-Hausser counting chamber. Each treatment was added directly into the control without DMSO and Tween 80 as used in the previous experiments. The diameter of no growth around a 6 mm blank disk after incubation at 25° C. for 72 hrs was compared to the untreated control.
# [1] = system: Escherichia coli (ATCC #8739); assay: Preservative efficacy testing in cream, Example 2 (Study 1 and 2); type: cell-based; conditions: Study 1, cream with 0.5% or 1.0% caprylic acid, after 3 days
# Method: (§1) Oregano essential oil containing 67.8% carvacrol (lot number 628034, thymol was not detectable) was received from Kemin SCI. Caprylic acid was obtained from Fisher Scientific (catalog number AC12939). To make MicroCurb OC, a blend with 10% oregano essential oil and 90% caprylic acid (w/w) was prepared for initial testing. The solution was mixed thoroughly for 10 seconds by a vortex mixer until a clear, homogenous mixture was obtained, resulting in the product MicroCurb OC.
# (§2) Creams were prepared aseptically by spraying 70% isopropyl alcohol on all surfaces and glassware. Preservative studies were completed at different times for caprylic acid alone (Study 1) and MicroCurb OC (Study 2). Tables 5 and 6 list the various ingredients and their percentages used in Study 1 and 2, respectively.
# (§3) De-ionized water was added to a pre-weighed 250 mL beaker and mixed at 800 rpm using an overhead mixer (Eurostar power-b IKA-WERKE, Wilmington, N.C.) with a 3 blade impeller. Carbomer 940 was slowly added to the center of the mixing water. The mixture was hydrated for 30 minutes while covered with aluminum foil. Glycerin and Lysofix were slowly added to the solution. After solution appeared homogenous, safflower oil, olive oil, and coco caprylate were slowly added to the mixture at 1000 rpm. The solution was mixed for 30 minutes while covered with aluminum foil. Next the pH was measured (around 3.2) and adjusted to 5.5 with a 33.3% sodium hydroxide solution. The mixing speed was increased to 1400 rpm. From time to time, it was necessary to scrape the sides of the beaker with a spatula to ensure that the cream became homogenized. After 5 minutes, the cream was weighed and water was replenished for the mass lost during the processing.
# (§4) Microorganisms Escherichia coli (ATCC #8739), Staphylococcus aureus (ATCC #6538), Pseudomonas aeruginosa (ATCC #9027), and Candida albicans (ATCC #10231) were obtained from −80° C. internal stock cultures. Aspergillus brasiliensis (ATCC #16404) was obtained from an internal stock solution stored at 4° C. E. coli, S. aureus, and P. aeruginosa were grown in TSB and incubated at 37° C. for 24 h. A. brasiliensis was plated on SDA and incubated at 25° C. for 5-7 days. C. albicans was grown in SDB and incubated at 25° C. for 48 h.
# (§5) Pathogens in broth were harvested by centrifugation (2400 rpm, 20 minutes) and suspended in sterile phosphate buffer. A. brasiliensis was harvested by adding 18 mL sterile phosphate buffer to the plate and agitating the mold from the agar with a sterile inoculating loop. The spores were collected upon agitation. All suspended microbes were diluted with sterile phosphate buffer until a concentration in the range of 10^8 CFU/mL was achieved. The concentration was determined by plate count method. Each strain was identified by plating on the appropriate growth media, E. coli, S. aureus, and P. aeruginosa on TSA and C. albicans and A. brasiliensis on SDA, to ensure there was no contamination of the inoculum.
# (§6) Preservative Efficacy Testing. Each tube was inoculated with the standardized microbial suspensions, using a ratio of 1 mL to 10 grams of the product, ensuring that the inoculum after suspension would yield the target level of 6-log CFU/g cream. For every testing time point, the sample was enumerated by sampling 1 g from the original product containers, serial dilution, and streaking plates containing the appropriate growth media to test colonization in duplicate. The inoculated plates were incubated at 25° C. for C. albicans and A. niger and 37° C. for E. coli, S. aureus, and P. aeruginosa. The number of viable microorganisms per gram was calculated via plate count method. The samples were enumerated on day 0, 2, 3, 5, 7, 14, and 28.
# (§7) The plate counts obtained each day were averaged for each treatment. The results were shown graphically by the log count of each averaged value per treatment per day. For plates that had no growth, the lowest dilution plated was recorded.
# [2] = system: Pseudomonas aeruginosa (ATCC #9027); assay: as above; type: cell-based; conditions: Study 1, cream with 0.5% or 1.0% caprylic acid, after 2 days
# Method: as §1, §2, §3, §4, §5, §6, §7
smiles,measurement,setting,value
"CCCCCCCC(=O)O [Caprylic Acid, octanoic acid]",% Inhibition from Control,A. brasiliensis; 0.045% in agar,34.60%
same,Diameter of Growth,A. brasiliensis; 0.045% in agar,5.00 mm
same,% Inhibition from Control,A. brasiliensis; 0.090% in agar,100.00%
same,Diameter of Growth,A. brasiliensis; 0.090% in agar,0.00 mm
same,% Inhibition from Control,A. brasiliensis; 0.270% in agar,100.00%
same,Diameter of Growth,A. brasiliensis; 0.270% in agar,0.00 mm
same,MIC90 in the poison agar assay,"A. brasiliensis; potato dextrose agar, 25° C., 72 hrs",0.09%
same,Log reduction of E. coli,[1],5 log
same,Log reduction of P. aeruginosa,[2],5 log
